The results in this text go back to US20040034009A1, “1,6-Fused uracil derivatives as matrix metalloproteinase inhibitors” (priority 2002, published 2004).

Each structure is given as a SMILES string.

The target in this test is human MMP-13 catalytic domain (hMMP-13CD) (Homo sapiens, UniProt P45452). Description: Inhibition of MMP-13 catalytic domain (thiopeptolide substrate assay). The test is classed as biochemical. An excerpt:
The assays measure the amount by which a test compound reduces the hydrolysis of a thiopeptolide substrate catalyzed by a matrix metalloproteinase enzyme. Such assays are described in detail by Ye et al., in Biochemistry, 1992;31(45):11231-11235, which is incorporated herein by reference. One such assay is described below in Biological Method 1.
Thiopeptolide substrates show virtually no decomposition or hydrolysis at or below neutral pH in the absence of a matrix metalloproteinase enzyme. A typical thiopeptolide substrate commonly utilized for assays is Ac-Pro-Leu-Gly-thioester-Leu-Leu-Gly-OEt. […] The change in absorbance at 405 nm is monitored on a Thermo Max microplate reader (molecular Devices, Menlo Park, Calif.) at room temperature (22° C.). […]
Some representative compounds of Formula I have been evaluated for their ability to inhibit MMP-13. Inhibitor activity versus other MMPs with the compounds may be determined using, for example, MMP-1FL, which refers to full length interstitial collagenase; MMP-2FL, which refers to full length Gelatinase A; MMP-3CD, which refers to the catalytic domain of stromelysin; MMP-7FL, which refers to full length matrilysin; MMP-9FL, which refers to full length Gelatinase B; MMP-13CD, which refers to the catalytic domain of collagenase 3; and MMP-14CD, which refers to the catalytic domain of MMP-14. […]

Usually IC50 stands for the concentration that inhibits the measured activity by half. A lower IC50 goes with inhibition by little substance. For `O=C(O)c1ccc(Cn2ccc3ccc(C#CCn4ccnn4)cc3c2=O)cc1` [4-[1-oxo-7-(3-[1,2,3]triazol-1-ylprop-1-ynyl)-1H-isoquinolin-2-ylmethyl]benzoic acid], the IC50 is over 50 µM.
